Test results as given in US20190203253A1, “METHODS OF IDENTIFYING AND TREATING CANCER PATIENTS WITH AN EPHB6 DEFICIENCY” (University of Saskatchewan, priority 2016, published 2019).

Key:
[1] = tested on: BT-20 cells (EPHB6-targeting shRNA vs non-silencing shRNA); assay: Drug sensitivity assay (resazurin), SRC inhibitors, BT-20 cells with silenced EPHB6; type: cell-based, human; settings: BT-20 with EPHB6-targeting shRNA vs non-silencing shRNA, 96 h (FIGS. 6A-6E)
Procedure: FIG. 6. SL relation between EPHB6 and SRC in BT-20 TNBC cells. A. Triple negative breast cancer cells, BT-20, were transduced with EPHB6-targeting shRNA (BT20-66-shRNA), or non-silencing shRNA (BT2O-NS). EPHB6 expression was analyzed by Western blotting with anti-EPHB6. Western blotting with anti-tubulin was used as a loading control. B. BT20-66-shRNA and BT2O-NS cells were cultured in 96-well plates with indicated concentrations of SU6656 or matching volumes of DMSO for 96 h. Cells were stained with resazurin and fluorescence was measured using a SpectraMax M5 plate reader to determine cell suppression. Five wells were analyzed per condition. […] C. […] Cells were stained with resazurin and fluorescence was measured using a SpectraMax M5 plate reader to determine cell suppression. Five wells were analyzed per condition. […] PI-stained cells were counted in at least 10 randomly captured frames. […] Stained cells were analyzed by flow cytometry and the FlowJo software. […]
MDA-MB-231 and BT-20 cell monolayers were incubated in 96-well plates for 72 h and 96 h, respectively, with indicated concentrations of KX2-391 or SU6656, or matching volumes of DMSO as a solvent control. Treated cells were stained using resazurin by following the manufacturer's instructions and fluorescence was measured using a SpectraMax M5 microplate reader.

[2] = tested on: co-cultured MDA-B6 and MDA-pc3 cells; assay: Drug sensitivity assay with fluorescent co-cultured cells (flow cytometry), KX2-391; type: cell-based, human; settings: GFP/RFP-labelled MDA-B6 and MDA-pc3 co-seeded in equal numbers, 25 nM, 72 h (FIGS. 4D, 4E)
Procedure: FIG. 4. SL interaction between EPHB6 and SRC. A. MDA-pc3 and MDA-B6 cells were cultured in 96-well plates with the indicated concentrations of SU6656 or matching volumes of DMSO for 72 h. Cells were stained with resazurin and fluorescence was measured using a SpectraMax M5 plate reader to determine cell suppression. Five wells were analyzed per condition. […] B. MDA-pc3 and MDA-B6 cells were cultured in 96-well plates with the indicated concentrations of KX2-391 or matching volumes of DMSO for 72 h. Cells were stained with resazurin and fluorescence was measured using a SpectraMax M5 plate reader to determine cell suppression. Five wells were analyzed per condition. […] C. MDA-B6 and MDA-pc3 cells were transduced with lentivirus encoding pLD-GFP-Puro or pLD-RFP-Puro as indicated. Cells were selected with 2 μg/mL puromycin for 48 h, cultured in monolayer, and imaged by confocal microscopy at 100× magnification. […] Cells were collected and analyzed by flow cytometry and the FlowJo software. […] Cells were collected and analyzed by flow cytometry and the FlowJo software. […]
For color assays, MDA-B6-GFP and MDA-pc3-RFP, or MDA-B6-RFP and MDA-pc3-GFP cells were co-seeded in equal numbers in 12-well plates at indicated cell densities. […] Treated cells were collected and quantitated by flow cytometry. Results were analyzed using the FlowJo software (FLOWJO LLC, Ashland, Oreg., USA).

MDA-pc3 and MDA-B6 cells = assay: Cell death assays (propidium iodide and 7-AAD staining); type: cell-based, human; settings: MDA-pc3 vs MDA-B6, 25 nM, 72 h (FIGS. 5A, 5B)
Procedure: FIG. 5. Inhibition of SRC induces cell death more efficiently in EPHB6-deficient cells. A. MDA-pc3, and MDA-B6 cells were cultured in glass-bottom plates in the presence of 25 nM KX2-391 or DMSO for 72 h and stained with 2.7 μg/mL propidium iodide (PI) in phenol red-free medium. Stained cells were imaged at 200× magnification using Zeiss LSM 700 confocal microscope and PI-stained cells were counted in at least 10 randomly captured frames. Counts of PI-positive cells were normalized on the total cell numbers in matching frames. […] B. MDA-pc3 and MDA-B6 cells were cultured in 6-well plates in the presence of 25 nM KX2-391 or a matching volume of DMSO for 72 h. Cells were collected and stained for 7-AAD for 15 minutes at room temperature. Cells were analyzed by flow cytometry and the FlowJo software. […] All experiments were performed at least three times. Scale bar, 100 μm. *, P<0.05, Student's t-test.
For propidium iodide (PI) staining, MDA-MB-231 and BT-20 cells were incubated in glass-bottom plates (MatTek, Ashland, Mass., USA) for 72 h and 96 h, respectively, with KX2-391 and matching volumes of DMSO. […] The amount of PI-stained cells was analyzed by microscopy using a Zeiss Observer Z1 at 200× magnification. […] PI-stained cells were counted in at least 10 randomly captured frames, normalized on the total number of cells in matching frames and compared between DMSO controls and treated cells. […]

prostate cancer = settings: reference [26]; cited from earlier work

O=C(Cc1ccc(-c2ccc(OCCN3CCOCC3)cc2)cn1)NCc1ccccc1 [KX2-391]
cell suppression after silencing of EPHB6 expression [1]: strongly increased their suppression | cell suppression in co-culture monitored by flow cytometry [2]: EPHB6-deficient cells are much less resistant to SRC inhibition | induction of cell death (Propidium Iodide or 7-AAD staining) (MDA-pc3 and MDA-B6 cells): more efficient in inducing cell death, when the EPHB6 receptor is not expressed | clinical effect in phase II trials for prostate cancer (prostate cancer): relatively modest effect
